Source: patent publication US5804549A, “Compositions with activity against helicobacter” (AMBI Inc., priority 1996, dated 1998)

Test system: H. pylori strain ATCC 43504
Experiment: bactericidal activity: survival of bacteria by viable counts (CFU/ml)
Assay type: cell-based, Helicobacter pylori
Experimental: All tests of bactericidal activity in this example were conducted for 30 minutes at 37° C. The parameter measured was survival of bacteria exposed to GML and/or nisin, as determined by viable counts (colony forming units per ml [CFU/ml]) determined by standard dilution and plating techniques. Media, growth and test conditions were as follows: All cultures of Helicobacter were incubated under microaerobic conditions in GasPak. H. pylori was cultured for 2 to 4 days on Trypticase Soy agar+5% defibrinated sheep blood and then inoculated into NYCIII broth and grown overnight with gentle shaking. [NYCIII broth contains, per liter: 1 g soluble starch (Difco), 15 g proteose peptone #3 (Difco), 5 g NaCl, 4 gK2 HPO4, 1 g KH2 PO4, 5 g glucose, 25 ml fresh yeast extract (Gibco), 120 ml gamma-globulin-free horse serum (Sigma)]. Suspensions for testing the activity of GML and nisin were in 10% sucrose. Viable counts were determined after 3-5 days' growth on Trypticase Soy agar-5% sheep blood.
A suspension of bacteria was divided and exposed to different concentrations of the agents, singly or combined. Survival of bacteria is expressed relative to the unincubated (zero time) control suspension. Nisin alone, at concentrations between 30 and 300 μg/ml, had little or no effect on the viability of H. pylori (survival ≥10%). At concentrations of 1 and 3 μg/ml GML, in the absence of nisin, there was also little or no reduction in the viability of the inoculum (survival≥10%). […] When the bacteria were exposed to 10 μg/ml of GML alone, again more than 10% of the bacteria survived.

Molecule	Survival of bacteria relative to the unincubated (zero time) control suspension (10 μg/ml of GML alone, 30 minutes at 37° C.)	effect on the viability of H. pylori (GML 10 μg/ml administered alone)	Survival of bacteria relative to the unincubated (zero time) control suspension (GML 1 and 3 μg/ml, in the absence of nisin, 30 minutes at 37° C.) [%]	effect on viability of the bacterial suspensions (GML alone, 30 or 100 μg/ml, 30 minutes at 37° C.)	effect on the viability of H. pylori (nisin 30-100 μg/ml administered alone)	Survival of bacteria relative to the unincubated (zero time) control suspension (nisin alone, 30 to 300 μg/ml, 30 minutes at 37° C., 10% sucrose, no chelator) [%]
CCCCCCCCCCCC(=O)OCC(O)CO (stereo not drawn) [GML, Glycerol monolaurate]	more than 10%	little effect on the viability	≥ 10	sterilized the bacterial suspensions	–	–
nisin	–	–	–	–	little effect on the viability	≥ 10
